# According to patent publication US11077138B2, “Methods of tissue repair and regeneration” (INNOLIFE CO., LTD., priority 2015, dated 2021):
# “Also recorded” adds a separate entry of the source.
# How the values were obtained:
# VEGF = assay: Western blotting analysis of VEGF in isolated rat aortic rings; format: cell-based, Sprague Dawley rats; conditions: for production of VEGF (protein level): 8 days
# Procedure: Protein extracts were obtained after lysing rat aortic rings with matrigel in the radio immunoprecipitation assay (RIPA) lysis buffer (Beyotime, Jiangsu, CN) containing 1% complete ethylene diamine tetraacetic acid (EDTA)-free protease inhibitor cocktail (Roche, Mannhein, DE) for 30 min on ice. Equal loading of protein was assured by prior quantitation using a bicinchoninic acid (BCA) protein assay kit (Thermo, Rockford, USA). An appropriate amount of protein in total lysates was resolved in a sodium dodecyl sulfate (SDS)-polyacrylamide electrophoresis gel and transferred onto a polyvinylidene difluoride membrane (Bio-rad, USA). Membranes were blocked for 1 h in Tris-buffered saline/Tween 20 (TBST) (10 mM Tris.HCl, pH 8.0, 150 mM NaCl and 0.1% Tween 20) containing 5% nonfat dry milk and incubated overnight at 4° C. with the primary mouse anti-VEGF antibody (Santa Cruz, Calif., USA) and mouse antibeta actin antibody (ZSGB-BIO, Beijing, CN) diluted in the blocking buffer. After washing with TBST, the membranes were incubated with a horseradish peroxidase (HRP)-linked antimouse immunoglobulin G (IgG) antibody (ZSGB-BIO, Beijing, CN) diluted in TBST for 1 h at room temperature. Target proteins were visualized using a chemiluminescence HRP substrate (Millipore, Billerica, USA).
# (§1) Aortic rings were cultured in 48-well plates in 250 μl EBM-2 (1% FBS) media containing anti-VEGF antibody (Santa Cruz, Calif., USA) at a final concentration of 2 ng/ml. The treatment and angiogenesis assay were the same as above.
# [1] = system: isolated rat aortic rings; assay: Isolated rat aortic ring assay for angiogenesis; format: cell-based, Sprague Dawley rats; conditions: 8 days
# Description: Thoracic aortas were removed from 8- to 10-week-old male Sprague Dawley (SD) rats (292-307 g) and immediately transferred to a culture dish containing ice-cold serum-free endothelial basal medium-2 (EBM-2, Lonza Cologne AG). The periaortic fibroadipose tissue was carefully removed with fine microdissecting forceps and iridectomy scissors; paying special attention not to damage the aortic wall. One-millimeter long aortic rings were sectioned and extensively rinsed in five consecutive washes with EBM-2.
# Forty-eight well tissue culture grade plates were covered with 100 μl of matrigel (GFR, BD) and allowed to gel for 45 min at 37° C., 5% CO2. Aortic rings were placed on the matrigel-coated wells, covered with an additional 100 μl matrigel and allowed to gel again for 45 min at 37° C., 5% CO2. The culture was then added 250 μl EBM-2 containing 1% fetal bovine serum (FBS). Copper sulfide solution was added to the culture at a final concentration of 5, 25, 50 or 100 μM copper element. The growth media were removed and replaced every 2 days. Aortic rings were photographed on Day 8.
# The area of angiogenic sprouting was calculated using the Image J software program (NIH, Bethesda, Md.). Microvessel densities are reported in square pixels.
# as §1
# [2] = system: BMSCs homing (SDF-1/CXCR4 axis); assay: Tracking of homing of labeled autologous BMSCs to the infarcted rabbit heart; format: in vivo, New Zealand white rabbits; conditions: BMSCs incubated overnight with AMD3100
# Procedure: (1) Adult male New Zealand white rabbits were preoperative fasted for 12 hours, and the operation room was sterilized by overnight ultraviolet radiation before the surgery. (2) Rabbits were anesthetized with 3 ml/kg chloral hydrate by intraperitoneal administration, and then placed on the operation table in the supine position. Hairs covering chest and limbs at electrode attachment site were shaved. The surgical area was scrubbed with povidone-iodine for 3 consecutive times. Lidocaine was injected into the subcutaneous area around the incision site. (3) Electrodes were attached to the limbs and ECG (electrocardiogram) was recorded 30 minutes before and after the surgery. (4) The rabbits were subjected to a median sternotomy. The skin was cut and the s.c. tissue and the muscular was dissected. Afterwards, the sternum was retracted and the pleuron was dissected, the pleural space was opened and so the pericardium was exposed. (5) After gently incision of the pericardium, the heart was exposed and the left circumflex branch (LC) was ligated. […] (6) Color changes of the anterior ventricular wall, the difference of left ventricular wall motion, and alterations including ST segment recorded by electrodes II, III, and aVF in ECG was monitored for 2 minutes to ensure that the ligation was successful. […]
# HIF-1 = assay: Hypoxia-induced activation of HIF-1 in HepG2 cells; format: cell-based, human
# Description: There are multiple sites that potentially require copper for activation of HIF-1, including HIF-1α synthesis, stabilization, translocation from cytosol to nucleus, binding to the HRE sequence of target genes, and HIF-1 transcriptional complex formation. We have specifically determined the mechanism of action of copper in regulation of HIF-1 transcriptional activity in human hepatoma HepG2 cells. […] This CCS gene silencing result excludes possible confounding effect on nonspecific chelation by TEPA. […] Therefore, it was concluded that copper is required for HIF-1 activation through regulation of HIF-1α binding to the HRE and the formation of HIF-1 transcriptional complex. Copper deficiency thus suppresses HIF-1 transcriptional activity by FIH-1 depression.
# [3] = copper at concentrations above 50 μM
molecule,measurement,setting,value
Copper sulfide,production of VEGF (protein level),VEGF; 5 μM copper,did not enhance the production of VEGF
same,production of VEGF (protein level),VEGF; [3],significantly increased the production of VEGF
same,angiogenesis (area of angiogenic sprouting),"[1]; 5 μM copper, EBM-2 with 1% FBS",stimulated the vascular formation; also recorded: strongest promotion effect on the angiogenesis
same,angiogenesis (area of angiogenic sprouting),[1]; [3],lost the pro-angiogenesis effect; also recorded: significantly inhibitory effect
c1cc(CN2CCCNCCNCCCNCC2)ccc1CN1CCCNCCNCCCNCC1 [AMD3100],homing of AMD3100 treated BMSCs to Cu-albumin-microbubble treated chronic ischemic area,"[2]; 6 months after MI surgery, Cu-albumin-microbubble treated",homing signals could not be observed; also recorded: no BMSCs homing signal
same,homing of AMD3100 treated BMSCs to acute cardiac infarct area,[2]; within 1 month after MI surgery,could not home cardiac infarct area; also recorded: significant decrease of BMSCs homing signals
"NCCNCCNCCNCCN [TEPA, tetraethylenepentamine]",hypoxia-induced activation of HIF-1,HIF-1,suppressed hypoxia-induced activation of HIF-1
same,VEGF levels,"VEGF; 25 μM TEPA, with or without 5 μM copper",significantly decreased VEGF levels
same,"copper promotion of angiogenesis, TEPA with copper",[1]; 25 μM TEPA simultaneously with 5 μM copper,blocked; also recorded: completely suppressed the angiogenic promotion effect of 5 μM copper
same,"angiogenesis, TEPA alone",[1]; 25 μM TEPA,caused an inhibition of angiogenesis
